{"source": "patent US6905840B1", "about": "“Double motor mutant assay for antifungal agents” (Cytokinetics, Inc., priority 2003, dated 2005)", "key": {"[1]": {"tested_on": "kip3-20(ts) dyn1Δ (DS765) double mutant", "assay": "Benomyl suppression of lethality of the kip3(ts) dyn1 double mutant, spot growth on YPD", "format": "cell-based, Saccharomyces cerevisiae", "conditions": "37° C., solid YPD medium with 1% DMSO, 5 or 10 μg/ml benomyl, 3 d; little growth in the absence of benomyl", "description": "Since one phenotype of the kip3 single mutant and the kip3(ts) dyn1 double mutant is increased microtubule abundance, it was tested whether the microtubule-depolymerizing drug benomyl could suppress the lethality of the kip3(ts) dyn1 double mutant."}, "[2]": {"tested_on": "kip3-30(ts) kar3Δ (DS752) double mutant", "assay": "Benomyl suppression of lethality of the kip3-30(ts) kar3 double mutant, spot growth on YPD", "format": "cell-based, Saccharomyces cerevisiae", "conditions": "medium containing a low concentration of benomyl, restrictive temperature (FIG. 1C)"}}}
{"smiles": "CCCCNC(=O)n1c(NC(=O)OC)nc2ccccc21", "note": "[benomyl]", "values": [{"measurement": "growth of the kip3(ts) dyn1 double mutant (suppression of lethality)", "setting": "[1]", "result": "significant growth"}, {"measurement": "lethality of the kip3-30(ts) kar3 double mutant", "setting": "[2]", "result": "partially suppressed"}]}
